Experimental data reported in PubChem BioAssay AID248 (DTP/NCI, 2004).
“And” between values parts separate entries of the source, which are not always exact repeats. Equal values may be shown once. Toxic doses and inconclusive results are not listed. Rule as the data show it: active = T/C of 150% or more; inactive = T/C below 125%.

Tested on: L1210 leukemia ip in BDF1 mice, survival T/C
Experiment: NCI In Vivo Anticancer Drug Screen. Data for tumor model L1210 Leukemia (intraperitoneal) in B6D2F1 (BDF1) mice
Conditions: endpoint: mean survival time, higher = longer survival
Procedure, shortened: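 Read-out is survival time, reported as the treated-group measurement over the vehicle-control measurement.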

[1] = dose: 100.0 mg/kg/injection, schedule: Q01DX001 (ip), vehicle: saline
[2] = dose: 200.0 mg/kg/injection, schedule: Q01DX001 (ip), vehicle: saline
[3] = dose: 400.0 mg/kg/injection, schedule: Q01DX001 (ip), vehicle: saline
[4] = dose: 100.0 mg/kg/injection, schedule: Q01DX009 (ip), vehicle: Klucel (hydroxypropylcellulose) (HPC)
[5] = dose: 100.0 mg/kg/injection, schedule: Q04DX003 (ip), vehicle: Klucel (hydroxypropylcellulose) (HPC)
[6] = dose: 200.0 mg/kg/injection, schedule: Q01DX009 (ip), vehicle: Klucel (hydroxypropylcellulose) (HPC)
[7] = dose: 400.0 mg/kg/injection, schedule: Q01DX009 (ip), vehicle: Klucel (hydroxypropylcellulose) (HPC)
[8] = dose: 400.0 mg/kg/injection, schedule: Q04DX003 (ip), vehicle: Klucel (hydroxypropylcellulose) (HPC)
[9] = dose: 100.0 mg/kg/injection, schedule: Q01DX009 (ip), vehicle: saline with Tween-80
[10] = dose: 200.0 mg/kg/injection, schedule: Q01DX009 (ip), vehicle: saline with Tween-80
[11] = dose: 100.0 mg/kg/injection, schedule: Q04DX003 (ip), vehicle: saline with Tween-80
[12] = dose: 200.0 mg/kg/injection, schedule: Q04DX003 (ip), vehicle: saline with Tween-80
[13] = dose: 400.0 mg/kg/injection, schedule: Q04DX003 (ip), vehicle: saline with Tween-80

Measured: T/C

O=C(O)O.[Co].[NH-]CCN(CC[NH-])CC[NH-]
inactive: dose: 50.0 mg/kg/injection, schedule: Q01DX001 (ip), vehicle: saline 105 % of control | [1] 94 % of control | [2] 111 % of control | [3] 100 % of control

O=C1C(C(Cl)c2ccccc2)SC(c2ccccc2)N1c1ccccc1 (stereo not drawn)
inactive: [4] 95 % of control | [5] 102 % of control | [6] 95 % of control | dose: 200.0 mg/kg/injection, schedule: Q04DX003 (ip), vehicle: Klucel (hydroxypropylcellulose) (HPC) 89 % of control | [7] 95 % of control | [8] 96 % of control

CCCCCCC(O)CCCCCCCCCCC(=O)O (stereo not drawn)
inactive: [9] 106 % of control | [10] 93 % of control | dose: 400.0 mg/kg/injection, schedule: Q01DX009 (ip), vehicle: saline with Tween-80 88 % of control

CC1(C)N=C(N)N=C(N)N1c1ccc(CC(CCc2ccccc2)C(=O)Nc2ccc(S(=O)(=O)F)cc2)cc1 (stereo not drawn)
inactive: dose: 100.0 mg/kg/injection, schedule: Q01DX001 (ip), vehicle: Klucel (hydroxypropylcellulose) (HPC) 90 % of control | dose: 200.0 mg/kg/injection, schedule: Q01DX001 (ip), vehicle: Klucel (hydroxypropylcellulose) (HPC) 97 % of control | dose: 400.0 mg/kg/injection, schedule: Q01DX001 (ip), vehicle: Klucel (hydroxypropylcellulose) (HPC) 90 % of control

COc1cc(N)c2ncccc2c1
inactive: dose: 15.0 mg/kg/injection, schedule: Q01DX001 (ip), vehicle: saline 98 % of control | dose: 30.0 mg/kg/injection, schedule: Q01DX001 (ip), vehicle: saline 97 % of control | dose: 75.0 mg/kg/injection, schedule: Q01DX001 (ip), vehicle: carboxymethylcellulose (CMC) 96 % of control

CC1CC(C)(C)N=C(CC(C)(O)c2ccccn2)O1 (stereo not drawn)
inactive: dose: 100.0 mg/kg/injection, schedule: Q01DX001 (ip), vehicle: saline sonified 97 % of control | dose: 200.0 mg/kg/injection, schedule: Q01DX001 (ip), vehicle: saline sonified 103 % of control | dose: 400.0 mg/kg/injection, schedule: Q01DX001 (ip), vehicle: saline sonified 100 % of control

O=[N+]([O-])c1ccnc(NC2CCCCC2)c1
inactive: [1] 97 % of control | [2] 96 % of control | [3] 96 % of control

N#C[CH2][Sn]([c]1ccccc1)([c]1ccccc1)[c]1ccccc1
inactive: dose: 12.5 mg/kg/injection, schedule: Q04DX002 (ip), vehicle: saline with Tween-80 100 % of control | dose: 25.0 mg/kg/injection, schedule: Q04DX002 (ip), vehicle: saline with Tween-80 96 % of control | dose: 50.0 mg/kg/injection, schedule: Q04DX002 (ip), vehicle: saline with Tween-80 93 % of control

CC(C)N(CCNc1nc(C(Cl)(Cl)Cl)nc2cc(Cl)ccc12)C(C)C
inactive: [11] 93 % of control | [12] 94 % of control

O=C(O)C1CCCC[N-]1.O=C(O)C1CCCC[N-]1.O=C(O)C1CCCC[N-]1.O=C(O)C1CCCC[N-]1.[Cl][Rh][Cl] (stereo not drawn)
inactive: dose: 12.5 mg/kg/injection, schedule: Q01DX008 (ip), vehicle: water 98 % of control | dose: 25.0 mg/kg/injection, schedule: Q01DX008 (ip), vehicle: water 98 % of control | dose: 50.0 mg/kg/injection, schedule: Q01DX008 (ip), vehicle: water 103 % of control | dose: 100.0 mg/kg/injection, schedule: Q01DX008 (ip), vehicle: water 97 % of control | dose: 100.0 mg/kg/injection, schedule: Q01DX009 (ip), vehicle: saline 93 % of control | dose: 100.0 mg/kg/injection, schedule: Q04DX003 (ip), vehicle: saline 102 % of control | dose: 200.0 mg/kg/injection, schedule: Q04DX003 (ip), vehicle: saline 100 % of control | dose: 400.0 mg/kg/injection, schedule: Q04DX003 (ip), vehicle: saline 96 % of control

O=[N+]([O-])c1ccc(S(=O)CCCl)c([N+](=O)[O-])c1 (stereo not drawn)
inactive: dose: 6.25 mg/kg/injection, schedule: Q04DX003 (ip), vehicle: saline 96 % of control | dose: 12.5 mg/kg/injection, schedule: Q04DX003 (ip), vehicle: saline 97 % of control | dose: 25.0 mg/kg/injection, schedule: Q04DX003 (ip), vehicle: saline with Tween-80 100 % of control | dose: 25.0 mg/kg/injection, schedule: Q04DX003 (ip), vehicle: saline 97 % of control

NCCc1nc2ccccc2[nH]1
inactive: dose: 15.0 mg/kg/injection, schedule: Q01DX Z (ip), vehicle: saline 93 % of control | dose: 30.0 mg/kg/injection, schedule: Q01DX Z (ip), vehicle: saline 98 % of control | dose: 60.0 mg/kg/injection, schedule: Q01DX Z (ip), vehicle: saline 97 % of control | dose: 120.0 mg/kg/injection, schedule: Q01DX Z (ip), vehicle: saline 95 % of control | dose: 240.0 mg/kg/injection, schedule: Q01DX Z (ip), vehicle: saline 103 % of control | dose: 480.0 mg/kg/injection, schedule: Q01DX Z (ip), vehicle: saline 108 % of control

C[C@]12C=CC(=O)C=C1CC[C@H]1[C@@H]3CCC(=O)O[C@@]3(C)CC(=O)[C@@]12F
inactive: dose: 50.0 mg/kg/injection, schedule: Q01DX001 (sc), vehicle: steriod suspending solution 102 % of control | dose: 50.0 mg/kg/injection, schedule: Q01DX009 (sc), vehicle: steriod suspending solution 102 % of control | dose: 100.0 mg/kg/injection, schedule: Q01DX001 (sc), vehicle: steriod suspending solution 104 % of control | dose: 100.0 mg/kg/injection, schedule: Q01DX009 (sc), vehicle: steriod suspending solution 100 % of control | dose: 200.0 mg/kg/injection, schedule: Q01DX001 (sc), vehicle: steriod suspending solution 107 % of control | dose: 200.0 mg/kg/injection, schedule: Q01DX009 (sc), vehicle: steriod suspending solution 97 % of control | dose: 400.0 mg/kg/injection, schedule: Q01DX001 (sc), vehicle: steriod suspending solution 113 % of control | dose: 400.0 mg/kg/injection, schedule: Q01DX009 (sc), vehicle: steriod suspending solution 100 % of control

NC(=S)c1cccc(OCc2ccccc2)c1
inactive: [9] 106 % of control | [10] 92 % of control

CC(C)(C)OC(=O)NC(C(=O)O)C1=CCC=CC1 (stereo not drawn)
inactive: [5] 94 % of control | [8] 102 % of control

Brc1ccc(C2=CSC3=NCCN23)cc1
inactive: dose: 25.0 mg/kg/injection, schedule: Q04DX003 (ip), vehicle: Klucel (hydroxypropylcellulose) (HPC) 96 % of control | dose: 50.0 mg/kg/injection, schedule: Q04DX003 (ip), vehicle: Klucel (hydroxypropylcellulose) (HPC) 96 % of control

c1ccc2cc3sccc3cc2c1
inactive: [4] 96 % of control | [6] 95 % of control | [7] 93 % of control

Nc1nc(N)c(N=Nc2ccc(S(=O)(=O)O)cc2)c(N)n1
inactive: [11] 102 % of control | [12] 102 % of control | [13] 104 % of control

O=P(OCCCCl)(OCCCCl)C(Cl)(Cl)Cl
inactive: [1] 102 % of control | [2] 101 % of control | [3] 101 % of control

O=C(/C=C(\CBr)c1ccc(-c2ccccc2)cc1)c1ccccc1
inactive: dose: 50.0 mg/kg/injection, schedule: Q01DX001 (ip), vehicle: saline with Tween-80 92 % of control | dose: 100.0 mg/kg/injection, schedule: Q01DX001 (ip), vehicle: saline with Tween-80 87 % of control and 89 % of control | dose: 200.0 mg/kg/injection, schedule: Q01DX001 (ip), vehicle: saline with Tween-80 91 % of control | dose: 400.0 mg/kg/injection, schedule: Q01DX001 (ip), vehicle: saline with Tween-80 94 % of control

COc1c(C)ccc([N+](=O)[O-])c1OC
inactive: [11] 94 % of control | [12] 97 % of control | [13] 97 % of control

O=C(O)C(C(=O)O)C(=O)O
inactive: dose: 75.0 mg/kg/injection, schedule: Q01DX001 (ip), vehicle: saline 94 % of control | dose: 150.0 mg/kg/injection, schedule: Q01DX001 (ip), vehicle: saline 94 % of control

CC(=O)OC1C2C=CC(C2)C1OC(C)=O (stereo not drawn)
inactive: dose: 100.0 mg/kg/injection, schedule: Q01DX001 (ip), vehicle: other 100 % of control | dose: 200.0 mg/kg/injection, schedule: Q01DX001 (ip), vehicle: other 106 % of control | dose: 400.0 mg/kg/injection, schedule: Q01DX001 (ip), vehicle: other 112 % of control
